Columns and labels:
Conditions in all cases: 72 h
[1] = system: Caco-2; assay: drug sensitivity score (DSS) for viability; higher = more toxic; extreme values may be limits of the assay
[2] = system: Vero E6; assay: as above
[3] = system: Calu-3; assay: as above
[4] = system: U2OS; assay: as above
[5] = system: HepG2; assay: as above
[6] = system: Caco-2; assay: relative viability EC50 (midpoint between 100% and the lowest measured viability); higher = less toxic
[7] = system: Vero E6; assay: as above
[8] = system: Calu-3; assay: as above
[9] = system: U2OS; assay: as above
[10] = system: HepG2; assay: as above
[11] = system: Caco-2; assay: cell viability relative to DMSO; higher = less toxic
[12] = system: Vero E6; assay: as above
[13] = system: Calu-3; assay: as above
[14] = system: U2OS; assay: as above
[15] = system: HepG2; assay: as above

Compound | drug sensitivity score [1] | drug sensitivity score [2] | drug sensitivity score [3] | drug sensitivity score [4] | drug sensitivity score [5] | relative viability EC50 [6] [µM] | relative viability EC50 [7] [µM] | relative viability EC50 [8] [µM] | relative viability EC50 [9] [µM] | relative viability EC50 [10] [µM] | cell viability ([11]; 1 nM) [%] | cell viability ([11]; 10 nM) [%] | cell viability ([11]; 100 nM) [%] | cell viability ([11]; 1000 nM) [%] | cell viability ([11]; 10000 nM) [%] | cell viability ([12]; 1 nM) [%] | cell viability ([12]; 10 nM) [%] | cell viability ([12]; 100 nM) [%] | cell viability ([12]; 1000 nM) [%] | cell viability ([12]; 10000 nM) [%] | cell viability ([13]; 1 nM) [%] | cell viability ([13]; 10 nM) [%] | cell viability ([13]; 100 nM) [%] | cell viability ([13]; 1000 nM) [%] | cell viability ([13]; 10000 nM) [%] | cell viability ([14]; 1 nM) [%] | cell viability ([14]; 10 nM) [%] | cell viability ([14]; 100 nM) [%] | cell viability ([14]; 1000 nM) [%] | cell viability ([14]; 10000 nM) [%] | cell viability ([15]; 1 nM) [%] | cell viability ([15]; 10 nM) [%] | cell viability ([15]; 100 nM) [%] | cell viability ([15]; 1000 nM) [%] | cell viability ([15]; 10000 nM) [%]
OCCN(CCO)c1nc(N2CCCCC2)c2nc(N(CCO)CCO)nc(N3CCCCC3)c2n1 [dipyridamole] | 0.3 | 0 | 0 | 0 | 0 | > 10 | > 10 | > 10 | > 10 | > 10 | 114 | 98.9 | 102 | 96.2 | 87.1 | 104 | 90.1 | 108 | 95 | 95.3 | 99.1 | 103 | 112 | 96.4 | 104 | 103 | 99.2 | 101 | 102 | 99.8 | 94.2 | 101 | 96.6 | 100 | 96.7
CCCCCCCCCCCCCCCCCCCCCCO [docosanol] | 0.2 | 0 | 0 | 0 | 0.7 | > 10 | > 10 | > 10 | > 10 | > 10 | 95.8 | 92.2 | 99.5 | 116 | 82.1 | 108 | 98.4 | 98.2 | 88.4 | 104 | 87.6 | 97.6 | 96.4 | 102 | 96.5 | 92.3 | 96.2 | 94.6 | 98.6 | 105 | 104 | 100 | 104 | 93.2 | 85.1
C=C1/C(=C\C=C2/CCC[C@]3(C)[C@@H]([C@H](C)/C=C/[C@H](C)C(C)C)CC[C@@H]23)C[C@@H](O)C[C@@H]1O [doxercalciferol] | 0 | 0 | 0 | 0 | 0 | > 10 | > 10 | > 10 | > 10 | > 10 | 104 | 103 | 96.3 | 98.2 | 97.2 | 97.7 | 101 | 97.1 | 95.9 | 106 | 95.3 | 102 | 99.9 | 95.8 | 111 | 92.2 | 102 | 94.9 | 96.7 | 100 | 101 | 94.8 | 99.8 | 96.4 | 99.9
CCCCCCCC(=O)N[C@H](CN1CCCC1)[C@H](O)c1ccc2c(c1)OCCO2 [eliglustat] | 0 | 3.1 | 0 | 0 | 0 | > 10 | > 10 | > 10 | > 10 | > 10 | 103 | 96.7 | 95.1 | 99.8 | 99.8 | 97.3 | 91.6 | 84.3 | 84.2 | 85.5 | 98.7 | 98.3 | 96 | 99.5 | 93.2 | 101 | 95.4 | 97.8 | 94.6 | 95.3 | 100 | 109 | 95.8 | 108 | 92
CCOCCn1c(N2CCCN(C)CC2)nc2ccccc21 [emedastine] | 0 | 0 | 0 | 0 | 0 | > 10 | > 10 | > 10 | > 10 | > 10 | 97.3 | 102 | 102 | 95.4 | 91.2 | 99.1 | 105 | 100 | 98.4 | 99.8 | 94.2 | 101 | 99.3 | 112 | 106 | 97.4 | 96.3 | 93 | 98.4 | 96 | 89 | 98.4 | 92.7 | 101 | 107
OC[C@H]1O[C@@H](c2ccc(Cl)c(Cc3ccc(O[C@H]4CCOC4)cc3)c2)[C@H](O)[C@@H](O)[C@@H]1O [empagliflozin] | 0 | 0 | 0 | 0 | 0 | > 10 | > 10 | > 10 | > 10 | > 10 | 95 | 97.3 | 102 | 94.7 | 104 | 90 | 103 | 95 | 94.9 | 106 | 87.9 | 110 | 114 | 98.7 | 101 | 98.6 | 92.3 | 103 | 96.7 | 96.4 | 99.4 | 109 | 91.9 | 109 | 117
CSc1ccc(C(=O)c2[nH]c(=O)[nH]c2C)cc1 [enoximone] | 0 | 0 | 0 | 0 | 0 | > 10 | > 10 | > 10 | > 10 | > 10 | 92.8 | 87.2 | 100 | 111 | 87 | 99.6 | 99.6 | 86 | 90.6 | 94.9 | 106 | 101 | 94.2 | 96.7 | 101 | 99.2 | 97.9 | 101 | 108 | 105 | 96.6 | 95.8 | 103 | 82.5 | 100
CCOc1ccc(Cc2cc([C@]34OC[C@](CO)(O3)[C@@H](O)[C@H](O)[C@H]4O)ccc2Cl)cc1 [ertugliflozin] | 0 | 0 | 0 | 0 | 0 | > 10 | > 10 | > 10 | > 10 | > 10 | 96.8 | 96.9 | 90.5 | 89.9 | 103 | 102 | 104 | 95.1 | 101 | 102 | 106 | 99.1 | 104 | 98.7 | 96.4 | 101 | 102 | 102 | 98.1 | 101 | 108 | 109 | 107 | 98.6 | 98.6
CCc1cc(Cl)c(OC)c(C(=O)NC[C@@H]2CCCN2CC)c1O [eticlopride] | 0.1 | 0 | 0 | 0 | 0 | > 10 | > 10 | > 10 | > 10 | > 10 | 102 | 101 | 92.5 | 103 | 87 | 107 | 102 | 106 | 102 | 94.7 | 105 | 102 | 103 | 99.9 | 98.5 | 99.1 | 106 | 96.3 | 103 | 94.8 | 115 | 108 | 121 | 106 | 91.4
Cc1cc(C)c2c(c1)[C@@H](N(Cc1cc(C(F)(F)F)cc(C(F)(F)F)c1)c1nnn(C)n1)CCCN2C[C@H]1CC[C@H](C(=O)O)CC1 [evacetrapib] | 0 | 0 | 0 | 0 | 0 | > 10 | > 10 | > 10 | > 10 | > 10 | 90.6 | 94.9 | 108 | 99.8 | 97.3 | 96.1 | 97.3 | 95.7 | 93.3 | 102 | 97 | 88.9 | 100 | 96.9 | 89.9 | 98.1 | 100 | 97.5 | 103 | 91.9 | 97 | 100 | 95.6 | 99.5 | 104
CCOC(=O)C1=C(C)NC(C)=C(C(=O)OC)C1c1cccc(Cl)c1Cl (stereo not given) [felodipine] | 0 | 0 | 0 | 0 | 0 | > 10 | > 10 | > 10 | > 10 | > 10 | 101 | 102 | 104 | 91.8 | 99 | 99.2 | 103 | 101 | 103 | 94.7 | 89.8 | 101 | 111 | 98.2 | 102 | 106 | 96.7 | 99.7 | 97.4 | 100 | 105 | 107 | 99.5 | 99.2 | 96.9

From the supplement of paper PMC13380429
